In patent publication US12553889B2, “Small molecules targeting the intrinsically disordered structural ensemble of α-synuclein protect against diverse α-synuclein mediated dysfunctions” (The Regents of the University of California, priority 2019, dated 2026):
“Also recorded” adds a separate entry of the source.

Assays:
αSyn [1] = biological target: αSyn (Homo sapiens, UniProt P37840); experiment: αSyn split Gaussia luciferase (GLuc) biochemical oligomerization assay; design: His tag; made in house; host or cells: E. coli BL21(DE3), pET28b; details: 24 hours; for impact on αSyn oligomerization (GLuc complementation): 100 μM compound, 12.5 μM of each tagged synuclein; for impact on αSyn oligomerization relative to other active compounds (GLuc): 100 μM
Procedure: A mixture of purified αSyn fused at its C-terminus with either the N-Terminal or the C-terminal half of Gaussia luciferase was incubated and the formation of oligomers monitored by reconstituted luciferase activity (FIG. 9, GLuc). For comparison, fibrillization of αSyn was measured in parallel samples by measuring the fluorescence of the dye Thioflavin T (ThT) as is widely used in the field (FIG. 9, ThT). […] The αSyn-Split Gluc tags have been used to detect αSyn oligomerization in cell models via transfection and expression of DNA encoding αSyn fused to split Gluc tags, but it has not previously been used in a biochemical assay using purified proteins as shown here.
Five to […] each of αSyn-GLuc1 and μM αSyn-GLuc2, (N-terminal or C-terminal fragment of GLuc fused to the C-terminus of αSyn see Example 6) in a buffer consisting of 1 mM MgCl2, 1 mM ADP, 50 mM Na3PO4, 0.02% NaN3 and 1 mM DTT at pH 7.4, were incubated at 37° C. in a thermal cycler (BioRad DNA Engine PTC-200). In experiments in which fibrillization was also measured, samples were incubated in an air incubator with shaking at 1000 rpm. At various time points (typically 0, 6, 12, and 24 hours), Gaussia luciferase activity was quantified using a BioLux Gaussia Luciferase Assay Kit (NEB) according to the manufacturer's instructions and read on a SpectraMax M5 Microplate Reader (Molecular Devices) with 5 minute delay after the addition of substrate and 3 sec integration time reading each well.
• Mix αSyn-GLuc1 and αSyn-GLuc2 at a final concentration of 10 μM each; • Incubate at 37° C. with shaking at 1000 rpm for 120 hours; • Take aliquot at 0/3/6/12/24/48/72/96/120 hour for analysis by Gaussia luciferase activity assay and ThT assay Methods Gaussia Luciferase Assay (According to BioLux Kit Manual): • 1. Thaw reaction buffer and stabilizer; • 2. Make working solution, for each reaction: • Reaction Buffer 50 μL • BioLux Stabilizer 8 μL • Substrate 0.5 μL • 3. Mix well and wait 5 minutes to use the working solution; • 4. Take out 10 μL GLuc sample and put on white 96-well plates; • 5. Add 50 μL working solution, mix well and wait 3.5 minutes; • 6. Read on the plate reader at 480 nm ThT Assay: • 1. Dilute 1 mM Thioflavin T (M.W. 319 Da) stock in PBS to 25 μM final concentration (1:40 dilution) • 2. Pipet 95 μL of the 25 μM Thioflavin T per well of 384 well plate. • 3. Pipet αSyn fibril up and down to mix, add 5 μL to wells with Thioflavin T • 4. For controls, include 5 μL PBS alone. • 5. Incubate at room temperature for 15 min to 1 hour. • 6. Read plate (excitation 440 nm, emission 482 nm). Method Used to Screen 66 HT-CM-SPR Compounds Using αSyn-GLuc:
Reaction mix is added into 96-well PCR plate containing:
Reaction: • αSyn-GLuc1 12.5 μM • αSyn-GLuc2 12.5 μM • Compound 0/12.5/25/50/75/100 μM in DMSO 0.2% • Negative: DMSO 0.2%: • 37 degree (PCR), no shaking

αSyn [2] = biological target: T1, αSyn (Homo sapiens, UniProt P37840, Q99C); experiment: αSyn FRET (Cy3/Cy5) oligomerization assay; assay type: biochemical
T1 construct: made in house; host or cells: E. coli BL21(DE3), pET28b
Procedure: For the FRET oligomerization assay, 10 μM each of αSyn-Q-C(position number)Cy3 (donor) and αSyn-Q(position number)C-Cy5 (acceptor) in PBS (pH 7.4) were dispensed into black/clear bottom 384-well plates (Greiner) using a Mantis liquid handler (Formulatrix). The plate was sealed with AbsorbMax film (Sigma-Aldrich) and incubated at 37° C. The FRET between donor and acceptor was measured on a SpectraMax M5 Microplate Reader (Molecular Devices). An excitation wavelength of 525 nm for αSyn-Cy3 (donor), and emission wavelengths of 570 nm and 670 nm for αSyn-Cy3 (donor) and αSyn-Cy5 (acceptor) respectively were used. The plate reader PTM sensitivity is set to medium and assays executed without mixing. The signals are read at 10 minute intervals for 99 hours at 37° C. Efficiency of FRET was calculated as follows: EFRET=IAcceptor/IDonor, in which IAcceptor is acceptor emission intensity, IDonor is donor emission intensity.
• 1. Single point mutation (x to Cys) is introduced to αSyn. • 2. Cy3 and Cy5 are used as FRET probes Brief Procedure: Label αSyn Mutant with Cy3/Cy5 Dyes: • Incubate purified αSyn Q99C with 1 mM TCEP at 4° C. for 3 hours to reduce Cys; • Dissolve Cy3-maleimide or Cy5-maleimide (GE Healthcare) in DMSO; • Add 10× molar excess of dye to αSyn Q99C; • Incubate at 4° C. overnight; • Remove excess dye by HiTrap Desalting column (GE Healthcare); FRET Assay • Mix the following: • αSyn-Q99C-Cy3 5 uM • αSyn-Q99C-Cy5 5 uM
Measure the fluorescence from Cy3 and Cy5 at 37° C. for 99 hours on a plate reader (SpectraMax M5, Molecular Devices).

| SMILES | impact on αSyn oligomerization (GLuc complementation) (αSyn [1]) | activity in FRET αSyn oligomerization assay (αSyn [2]) | impact on αSyn oligomerization relative to other active compounds (GLuc) (αSyn [1]) | impact relative to 576755 in FRET αSyn oligomerization assay (αSyn [2]) |
| --- | --- | --- | --- | --- |
| Cc1c(-c2csc(NC(C(N)=O)C3CCNCC3)n2)sc2ccccc12 (stereo not shown) [Compound 573437, 2-((4-(3-methylbenzo[b]thiophen-2-yl)thiazol-2-yl)amino)-2-(piperidin-4-yl)acetamide] | impair αSyn oligomerization | block αSyn oligomerization |  |  |
| CNC(=O)c1cc(O)ccc1O [Compound 583854, 2,5-dihydroxy-N-methylbenzamide] | demonstrated inhibition of αSyn oligomerization | also active | more impact on αSyn oligomerization than 576755 and 581823 |  |
| CNC(=O)c1cc(O)ccc1NC [Compound 581858, 2-methylamino-5-hydroxy-N-methylbenzamide] | demonstrated inhibition of αSyn oligomerization | also active | more impact on αSyn oligomerization than 576755 and 581823 |  |
| CNC(=O)CN(C(=O)Cc1noc2ccccc12)C(C)c1ccc(Cl)cc1 (stereo not shown) [Compound 582032, 2-(benzo[d]isoxazol-3-yl)-N-(1-(4-chlorophenyl)ethyl)-N-(2-(methylamino)-2-oxoethyl)acetamide] | impair αSyn oligomerization | block αSyn oligomerization |  |  |
| CNC(=O)c1cc(O)ccc1N [Compound 576755, 2-amino-5-hydroxy-N-methylbenzamide] | impair αSyn oligomerization; also recorded: demonstrated inhibition of αSyn oligomerization | block αSyn oligomerization |  |  |
| CNC(=O)c1cc(O)ccc1N(C)C [Compound 581823, 2-dimethylamino-5-hydroxy-N-methylbenzamide] | demonstrated inhibition of αSyn oligomerization | also active | less impact than 576755 | less impact than 576755 |
